According to patent US20250129135A1, “Multi-Agonist and Use Thereof” (priority 2021, published 2025):
Starred links: 1 amine or outer side, 2 acyl side, 3 side chain; linkers in the order of their positions; H or OH if unused. Non-standard residues stand in square brackets, D forms with d. Residues, ends and D or L forms follow the SMILES beside them. Groups on a side chain read outwards from the residue. *: point of attachment. C20 diacid = O=C(O)CCCCCCCCCCCCCCCCCCC(=O)*; αMePhe(2-F) = C[C@](N)(Cc1ccccc1F)C(=O)O; γGlu = O=C(O)[C@H](CCC(=O)[*:2])N[*:1]; αMeL = CC(C)C[C@](C)(N)C(=O)O; AEEA = NCCOCCOCC(=O)O; Aib = CC(C)(N)C(=O)O

Legend:
RIN-m5F cells = format: cell-based, rat; conditions: for Rel. A (Relative Activity) on RIN-m5F: relative to GLP-1(7-37)
In short: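 cAMP production measured in RIN-m5F cells resuspended in HBSS; compounds incubated 60 min at room temperature, then detection reagent added for a further 60 min before read-out.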

3T3-L1 adipocytes = conditions: for Rel. A (Relative Activity) on 3T3-L1 adipocyte: relative to GIP
In short: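 Mouse 3T3-L1 preadipocytes were differentiated with IBMX, dexamethasone and insulin for 5 days, then insulin plus 10 uM rosiglitazone for 3 days, then 10% FBS medium for 2–3 days. Mature adipocytes received 10-point, 3-fold compound dilutions for 60 min at room temperature. cAMP was read by kit detection reagent after a further 60 min, with concentration-effect curves fitted.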

Human GCG R = molecular target: T1, Human GCG R (Homo sapiens, UniProt P47871); test: cAMP (HTRF) activity in HEK-293 cells stably overexpressing human GCG receptor; format: cell-based; conditions: EC50 of human GCG / EC50 of compound
T1 construct: expressed in transfected cells; host or cells: HEK-293
T1 sequence (P47871 26-477): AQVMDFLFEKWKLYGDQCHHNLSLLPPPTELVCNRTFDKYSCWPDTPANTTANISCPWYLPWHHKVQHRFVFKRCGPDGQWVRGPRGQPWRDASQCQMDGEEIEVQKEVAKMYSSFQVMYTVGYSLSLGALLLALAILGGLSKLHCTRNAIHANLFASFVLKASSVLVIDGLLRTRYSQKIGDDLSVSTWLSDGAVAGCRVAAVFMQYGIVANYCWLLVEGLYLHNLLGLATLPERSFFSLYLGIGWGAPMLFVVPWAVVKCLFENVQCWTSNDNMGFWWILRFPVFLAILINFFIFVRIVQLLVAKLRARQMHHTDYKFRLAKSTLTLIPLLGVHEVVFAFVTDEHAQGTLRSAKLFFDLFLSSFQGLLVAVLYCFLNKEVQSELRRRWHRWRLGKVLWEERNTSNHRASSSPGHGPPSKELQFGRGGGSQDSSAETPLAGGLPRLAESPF
In short: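 Cells resuspended in HBSS are incubated with compound for 60 min at room temperature, then with HTRF cAMP detection reagent for a further 60 min. Concentration-response fits give agonist EC50 values in nM.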

| SMILES | EC50 (RIN-m5F cells) [nM] | Rel. A (Relative Activity) on RIN-m5F (RIN-m5F cells) [%] | EC50 (3T3-L1 adipocytes) [nM] | Rel. A (Relative Activity) on 3T3-L1 adipocyte (3T3-L1 adipocytes) [%] | Human GCG R Rel. A (Relative Activity) (Human GCG R) [%] |
| --- | --- | --- | --- | --- | --- |
| CC[C@H](C)[C@H](NC(=O)[C@H](Cc1ccccc1)NC(=O)[C@H](C)NC(=O)C(C)(C)NC(=O)[C@H](CCC(N)=O)NC(=O)[C@H](C)NC(=O)[C@H](CCCCNC(=O)COCCOCCNC(=O)COCCOCCNC(=O)CC[C@H](NC(=O)CCCCCCCCCCCCCCCCCCC(=O)O)C(=O)O)NC(=O)[C@H](CCCCN)NC(=O)[C@H](CC(=O)O)NC(=O)[C@H](CC(C)C)NC(=O)[C@H](Cc1ccccc1)NC(=O)[C@@H](NC(=O)[C@H](CO)NC(=O)[C@H](Cc1ccc(O)cc1)NC(=O)[C@H](CC(=O)O)NC(=O)[C@H](CO)NC(=O)[C@@H](NC(=O)[C@](C)(Cc1ccccc1F)NC(=O)[C@@H](NC(=O)CNC(=O)[C@H](CCC(N)=O)NC(=O)C(C)(C)NC(=O)[C@@H](N)Cc1ccc(O)cc1)[C@@H](C)O)[C@@H](C)O)[C@@H](C)CC)C(=O)N[C@@H](CCC(=O)O)C(=O)N[C@@H](Cc1ccc(O)cc1)C(=O)N[C@@H](CC(C)C)C(=O)N[C@@H](CC(C)C)C(=O)N[C@@H](CCC(=O)O)C(=O)NC(C)(C)C(=O)N[C@@H](Cc1c[nH]cn1)C(=O)N1CCC[C@H]1C(=O)N[C@@H](CO)C(=O)N[C@@H](CO)C(=O)NCC(=O)N[C@@H](C)C(=O)N1CCC[C@H]1C(=O)N1CCC[C@H]1C(=O)N1CCC[C@H]1C(=O)N[C@@H](CO)C(N)=O [Compound 18] | 0.214 | 482.24 | 1.99 | 191.34 |  |
| CC[C@H](C)[C@H](NC(=O)[C@H](Cc1ccccc1)NC(=O)[C@H](C)NC(=O)C(C)(C)NC(=O)[C@H](CCC(N)=O)NC(=O)[C@H](C)NC(=O)[C@H](CCCCNC(=O)COCCOCCNC(=O)COCCOCCNC(=O)CC[C@H](NC(=O)CCCCCCCCCCCCCCCCCCC(=O)O)C(=O)O)NC(=O)[C@H](CCCCN)NC(=O)[C@H](CC(=O)O)NC(=O)[C@H](CC(C)C)NC(=O)[C@](C)(CC(C)C)NC(=O)[C@@H](NC(=O)[C@H](CO)NC(=O)[C@H](Cc1ccc(O)cc1)NC(=O)[C@H](CC(=O)O)NC(=O)[C@H](CO)NC(=O)[C@@H](NC(=O)[C@](C)(Cc1ccccc1F)NC(=O)[C@@H](NC(=O)CNC(=O)[C@H](CCC(N)=O)NC(=O)C(C)(C)NC(=O)[C@@H](N)Cc1ccc(O)cc1)[C@@H](C)O)[C@@H](C)O)[C@@H](C)CC)C(=O)N[C@@H](CCC(=O)O)C(=O)N[C@@H](Cc1ccccc1)C(=O)N[C@@H](CC(C)C)C(=O)N[C@@H](CC(C)C)C(=O)N[C@@H](CCC(=O)O)C(=O)N[C@H](C(=O)NCC(=O)N1CCC[C@H]1C(=O)N[C@@H](CO)C(=O)N[C@@H](CO)C(=O)NC(C)(C)C(=O)N[C@@H](Cc1c[nH]cn1)C(=O)N1CCC[C@H]1C(=O)N1CCC[C@H]1C(=O)N1CCC[C@H]1C(=O)N[C@@H](CO)C(N)=O)[C@@H](C)O [Compound 38] (H-Y[Aib]QGT[αMePhe(2-F)]TSDYSI[αMeL]LDKK([AEEA-AEEA-γGlu-C20 diacid])AQ[Aib]AFIEFLLETGPSS[Aib]HPPPS-NH2; N-terminus assumed) | 0.173 | 596.53 | 3.24 | 117.42 | 83.82 |
